Patent publication US20060252807A1, “Novel ortho-terphenyl inhibitors of p38 kinase and methods of treating inflammatory disorders” (Kalypsys, Inc., priority 2005, published 2006)

Each compound was assayed against T1, active p38 alpha enzyme (Upstate Biotechnology) (Homo sapiens, UniProt Q16539) (assay: p38α biochemical assay (ATP turnover, luminescent detection, Cambrex PKlight)). Conditions: p38α biochemical assay, Table 1 Biological Activity.
T1 construct: purchased Upstate Biotechnology
T1 sequence (Q16539 whole entry): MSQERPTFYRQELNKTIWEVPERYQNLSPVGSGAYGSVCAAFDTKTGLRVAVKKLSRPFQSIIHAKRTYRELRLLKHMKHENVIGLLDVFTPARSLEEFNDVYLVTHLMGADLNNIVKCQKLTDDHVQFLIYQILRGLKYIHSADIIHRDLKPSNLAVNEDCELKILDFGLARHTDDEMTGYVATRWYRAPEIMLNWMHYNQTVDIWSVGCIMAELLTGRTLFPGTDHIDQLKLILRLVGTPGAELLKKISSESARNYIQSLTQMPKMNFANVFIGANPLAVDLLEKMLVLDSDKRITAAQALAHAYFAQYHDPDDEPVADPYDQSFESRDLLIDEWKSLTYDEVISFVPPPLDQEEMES
How it was run: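 p38α + MapkapK2 (whole protein substrate) + 1.4 uM ATP final; Tris/MOPS buffer with MgCl2, CaCl2, EGTA, EDTA, glycerol, β-ME, BSA; 2 h at 30C; luminescent detection of remaining ATP.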
With `COc1cc(/C=C/C(=O)NCc2onc(-c3ccc(F)cc3)c2-c2nc(C(=O)NC(C)C)cs2)ccc1O` [Example 736] the IC50 was > 1000 nM.
`CC(C)NC(=O)c1csc(-c2oc(CN3CCN(C(=O)c4ccc5c(c4)OCO5)CC3)nc2-c2ccc(F)cc2)n1` [Example 414] was tested, and the IC50 was > 1000 nM.
For `CC(C)NC(=O)c1csc(-c2oc(CNC(=O)c3c4ccccc4cc4ccccc34)nc2-c2ccc(F)cc2)n1` [Example 303], the IC50 was ≤ 1000 nM.
In the case of `CC(=O)c1ccccc1C(=O)NCc1onc(-c2ccc(F)cc2)c1-c1nc(C(=O)NC(C)C)cs1` [Example 645], the IC50 is reported as > 1000 nM.
In the case of `CC(C)NC(=O)c1csc(-c2oc(CNC(=O)C(Cc3ccccn3)NC(=O)OC(C)(C)C)nc2-c2ccc(F)cc2)n1` (stereo not drawn) [Example 332], the IC50 is reported as > 1000 nM.
In the case of `CC(C)NC(=O)c1csc(-c2c(-c3ccc(F)cc3)noc2CNC(=O)C2CCCCC2)n1` [Example 593], the IC50 is reported as > 1000 nM.
`CC(=O)NC(Cc1ccc(O)cc1)C(=O)NCc1onc(-c2ccc(F)cc2)c1-c1nc(C(=O)NC(C)C)cs1` (stereo not drawn) [Example 780] was tested, and the IC50 was > 1000 nM.
In the case of `CC(C)NC(=O)c1csc(-c2c(-c3ccc(F)cc3)noc2CNC(=O)c2ccc(Cl)cc2Cl)n1` [Example 727], the IC50 is reported as > 1000 nM.
In the case of `CC(C)NC(=O)c1csc(-c2c(-c3ccc(F)cc3)noc2CNC(=O)c2ccc(Br)cc2)n1` [Example 744], the IC50 is reported as > 1000 nM.

Same assay, conditions: p38α kinase; Table 1 Biological Activity
With `CCOC(=O)C1CCN(C(=O)c2csc(-c3sc(C)nc3-c3ccc(F)cc3)n2)CC1` [Example 1887] the IC50 was > 1000 nM.
`CC(=O)Oc1ccccc1C(=O)N1CCC(c2[nH]nc(-c3ccc(F)cc3)c2-c2nc(C(=O)NC(C)C)cs2)CC1` [Example 930] was tested, and the IC50 was > 1000 nM.
In the case of `CCCC(C)NC(=O)c1csc(-c2c(-c3ccc(F)cc3)n[nH]c2C2CCNCC2)n1` (stereo not drawn) [Example 2045], the IC50 is reported as ≤ 1000 nM.
In the case of `Cc1nc(-c2ccc(F)cc2)c(-c2nc(C(=O)Nc3ccc(Cl)c(Cl)c3)cs2)s1` [Example 2007], the IC50 is reported as > 1000 nM.
For `Cc1nc(-c2ccc(F)cc2)c(-c2nc(C(=O)NCCCN3CCOCC3)cs2)s1` [Example 1792], the IC50 was ≤ 1000 nM.
`CC(C)NC(=O)c1csc(-c2c(-c3ccc(F)cc3)noc2CNCC(C)c2ccccc2)n1` (stereo not drawn) [Example 1448] was tested, and the IC50 was > 1000 nM.
In the case of `CC(C)NC(=O)c1csc(-c2c(-c3ccc(F)cc3)n[nH]c2C2CCN(C(=O)c3ccc(OCc4ccccc4)cc3)CC2)n1` [Example 1022], the IC50 is reported as > 1000 nM.
`CC(C)NC(=O)c1csc(-c2c(-c3ccc(F)cc3)noc2CNC(C)CCc2ccccc2)n1` (stereo not drawn) [Example 1470] was tested, and the IC50 was > 1000 nM.
In the case of `C#CCN(C)Cc1onc(-c2ccc(F)cc2)c1-c1nc(C(=O)NC(C)C)cs1` [Example 1512], the IC50 is reported as > 1000 nM.
In the case of `Cc1nc(-c2ccc(F)cc2)c(-c2nc(C(=O)NCCCN3CCCC3=O)cs2)s1` [Example 1788], the IC50 is reported as ≤ 1000 nM.
For `CC(C)NC(=O)c1csc(-c2oc(CN3CCCC3CO)nc2-c2ccc(F)cc2)n1` (stereo not drawn) [Example 1200], the IC50 was > 1000 nM.
`Cc1nc(-c2ccc(F)cc2)c(-c2nc(C(=O)N3CCOCC3)cs2)s1` [Example 1841] was tested, and the IC50 was > 1000 nM.
With `CCOC(=O)N1CCC(NC(=O)c2csc(-c3sc(C)nc3-c3ccc(F)cc3)n2)CC1` [Example 1816] the IC50 was > 1000 nM.
In the case of `CC(C)CNCc1nc(-c2ccc(F)cc2)c(-c2nc(C(=O)NC(C)C)cs2)o1` [Example 1062], the IC50 is reported as > 1000 nM.
For `Cc1nc(-c2ccc(F)cc2)c(-c2nc(C(=O)Nc3ccc(C)c(C)c3)cs2)s1` [Example 1966], the IC50 was > 1000 nM.
With `CC(C)NC(=O)c1csc(-c2oc(CNc3ccc(F)c(C(F)(F)F)c3)nc2-c2ccc(F)cc2)n1` [Example 1365] the IC50 was > 1000 nM.
With `CC(C)NC(=O)c1csc(-c2c(-c3ccc(F)cc3)noc2CNCCNC(=O)OC(C)(C)C)n1` [Example 1484] the IC50 was > 1000 nM.
For `CC(C)NC(=O)c1csc(-c2c(-c3ccc(F)cc3)noc2CNCCCN(C)c2ccccc2)n1` [Example 1487], the IC50 was > 1000 nM.
For `Cc1nc(-c2ccc(F)cc2)c(-c2nc(C(=O)NC3CCCC3)cs2)s1` [Example 1721], the IC50 was ≤ 1000 nM.
With `Cc1nc(-c2ccc(F)cc2)c(-c2nc(C(=O)NCCc3ccc(S(N)(=O)=O)cc3)cs2)s1` [Example 1828] the IC50 was ≤ 1000 nM.
For `CC(C)NC(=O)c1csc(-c2c(-c3ccc(F)cc3)noc2CNc2cc(F)c(F)cc2F)n1` [Example 1670], the IC50 was > 1000 nM.
